Measurements reported in PubChem BioAssay (NCI).
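Compound exposure: 48 hours, 5 concentrations, 96-well plates. GI50 = concentration required for 50% inhibition of growth. TGI is the concentration that stops growth completely.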

How the values were obtained:
Experiment in all cases: NCI tumour cell line growth inhibition, 48 h; in the data active = GI50 below about 0.43 µM; inactive = the rest
[1] = tested on: MCF7 breast
[2] = tested on: HCT-116 colon
[3] = tested on: HCC-2998 colon
[4] = tested on: SF-539 CNS
[5] = tested on: NCI/ADR-RES ovarian
[6] = tested on: OVCAR-5 ovarian
[7] = tested on: SNB-75 CNS
[8] = tested on: SF-295 CNS
[9] = tested on: NCI-H23 lung
[10] = tested on: RXF 393 renal
[11] = tested on: RPMI-8226 leukemia
[12] = tested on: LOX IMVI melanoma
[13] = tested on: 786-0 renal
[14] = tested on: SK-MEL-5 melanoma
[15] = tested on: CAKI-1 renal
[16] = tested on: IGROV1 ovarian
[17] = tested on: SW-620 colon
[18] = tested on: MALME-3M melanoma
[19] = tested on: UO-31 renal
[20] = tested on: U251 CNS
[21] = tested on: MDA-MB-231 breast
[22] = tested on: NCI-H522 lung
[23] = tested on: A498 renal
[24] = tested on: HCT-15 colon
[25] = tested on: NCI-H226 lung
[26] = tested on: SK-MEL-28 melanoma
[27] = tested on: T-47D breast
[28] = tested on: SNB-19 CNS
[29] = tested on: KM12 colon
[30] = tested on: HS 578T breast
[31] = tested on: PC-3 prostate
[32] = tested on: SN12C renal
[33] = tested on: A549 NSCLC
[34] = tested on: OVCAR-3 ovarian
[35] = tested on: HOP-92 NSCLC
[36] = tested on: HT29 colon
[37] = tested on: SR leukemia
[38] = tested on: OVCAR-4 ovarian
[39] = tested on: COLO 205 colon
[40] = tested on: SK-MEL-2 melanoma
[41] = tested on: DU-145 prostate
[42] = tested on: HL-60(TB) leukemia
[43] = tested on: NCI-H460 lung
[44] = tested on: HOP-62 NSCLC
[45] = tested on: SK-OV-3 ovarian
[46] = tested on: BT-549 breast
[47] = tested on: CCRF-CEM leukemia
[48] = tested on: SF-268 CNS
[49] = tested on: OVCAR-8 ovarian
[50] = tested on: TK-10 renal
[51] = tested on: K-562 leukemia
[52] = tested on: EKVX NSCLC
[53] = tested on: UACC-257 melanoma
[54] = tested on: MDA-MB-435
[55] = tested on: UACC-62 melanoma
[56] = tested on: MOLT-4 leukemia
[57] = tested on: M14 melanoma
[58] = tested on: ACHN renal

CC1(C)C2CCC13C(=O)C1OC3(C2)C2C(=O)c3c(ccc4c3ccc3ccccc34)C(=O)C12 (stereo not given)
inactive: GI50 [1] 31.6 µM | GI50 [2] > 36.9 µM | GI50 [3] > 100 µM | GI50 [4] > 64.4 µM | GI50 [5] > 46.7 µM | GI50 [6] > 100 µM | GI50 [7] > 65.8 µM | GI50 [8] 13.2 µM | GI50 [9] > 48.4 µM | GI50 [10] 84 µM | GI50 [11] 19.2 µM | GI50 [12] 50.9 µM | GI50 [13] > 36.3 µM | GI50 [14] 54.3 µM | GI50 [15] 20 µM | GI50 [16] > 100 µM | GI50 [17] 56.5 µM | GI50 [18] 25.2 µM | GI50 [19] > 100 µM | GI50 [20] > 64.8 µM | GI50 [21] > 37.2 µM | GI50 [22] > 62.1 µM | GI50 [23] > 100 µM | GI50 [24] > 53.5 µM | GI50 [25] > 100 µM | GI50 [26] > 84.3 µM | GI50 [27] 48 µM | GI50 [28] > 43.5 µM | GI50 [29] 57.6 µM | GI50 [30] > 56.1 µM | GI50 [31] > 66.5 µM | GI50 [32] > 73.3 µM | GI50 [33] > 60.1 µM | GI50 [34] 40.7 µM | GI50 [35] > 100 µM | GI50 [36] > 64.6 µM | GI50 [37] 1.86 µM | GI50 [38] 56.1 µM | GI50 [39] > 54 µM | GI50 [40] > 100 µM | GI50 [41] > 100 µM | GI50 [43] 57.3 µM | GI50 [44] > 100 µM | GI50 [45] > 100 µM | GI50 [46] > 80.3 µM | GI50 [47] 21.5 µM | GI50 [48] 70.5 µM | GI50 [49] > 61.1 µM | GI50 [50] > 87.5 µM | GI50 [51] 1.12 µM | GI50 [52] > 66.3 µM | GI50 [53] > 29.2 µM | GI50 [54] > 62.2 µM | GI50 [55] > 100 µM | GI50 [56] 1.1 µM | GI50 [57] > 100 µM | GI50 [58] 57.4 µM
80.1 µM: TGI [15]
11.1 µM: TGI [42]
> 89.2 µM: TGI [18]
> 57 µM: TGI [2]
> 70.5 µM: TGI [53]
> 70.3 µM: TGI [13]
> 81.5 µM: TGI [9]
51 µM: TGI [37]
82.1 µM: TGI [51]
92.6 µM: TGI [8]
> 94.8 µM: TGI [5]
> 53.2 µM: TGI [21]
> 60 µM: TGI [11]
10.6 µM: TGI [56]
> 62.9 µM: TGI [47]
> 75.9 µM: TGI [1]
> 100 µM: TGI [3] | TGI [4] | TGI [6] | TGI [7] | TGI [10] | TGI [12] | TGI [14] | TGI [16] | TGI [17] | TGI [19] | TGI [20] | TGI [22] | TGI [23] | TGI [24] | TGI [25] | TGI [26] | TGI [27] | TGI [28] | TGI [29] | TGI [30] | TGI [31] | TGI [32] | TGI [33] | TGI [34] | TGI [35] | TGI [36] | TGI [38] | TGI [39] | TGI [40] | TGI [41] | TGI [43] | TGI [44] | TGI [45] | TGI [46] | TGI [48] | TGI [49] | TGI [50] | TGI [52] | TGI [54] | TGI [55] | TGI [57] | TGI [58]
